# Laboratory results from patent US20210301318A1, “A BIOMARKER AND TARGET FOR DIAGNOSIS, PROGNOSIS AND TREATMENT OF ANKYLOSING SPONDYLITIS” (priority 2018, published 2021).
# “Also recorded” adds a separate entry of the source.
# Key:
# TNAP = molecular target: T1, TNAP (Homo sapiens, UniProt P05186); details: from references 22-24; cited from earlier work
# T1 sequence (P05186 18-501 limits assumed): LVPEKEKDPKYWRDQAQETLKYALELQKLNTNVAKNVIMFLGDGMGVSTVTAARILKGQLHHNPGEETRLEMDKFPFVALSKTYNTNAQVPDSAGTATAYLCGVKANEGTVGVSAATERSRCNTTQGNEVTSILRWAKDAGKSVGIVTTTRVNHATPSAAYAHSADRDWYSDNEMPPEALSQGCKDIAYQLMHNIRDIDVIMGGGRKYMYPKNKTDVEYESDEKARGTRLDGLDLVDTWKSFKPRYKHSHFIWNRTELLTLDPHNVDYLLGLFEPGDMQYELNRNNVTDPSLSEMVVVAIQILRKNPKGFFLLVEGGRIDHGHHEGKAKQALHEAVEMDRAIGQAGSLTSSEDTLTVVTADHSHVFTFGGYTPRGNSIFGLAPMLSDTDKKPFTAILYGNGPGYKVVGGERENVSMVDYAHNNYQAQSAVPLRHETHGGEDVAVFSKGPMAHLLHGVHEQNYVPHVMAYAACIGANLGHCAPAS
# AS MSCs = assay: Mineralization of AS MSCs under osteogenic induction (Alizarin red S staining); assay type: cell-based, human; details: 100 μM levamisole, 100 μM beryllium sulfate, or 1 μg/ml pamidronate
# Protocol: The same passages (p3 to p5) of AS MSCs and N MSCs were compared.
# The first culture condition was osteogenic induction, whereby α-MEM was supplemented with 10% fetal bovine serum (Gibco), 50 μg/mL ascorbate-2 phosphate (Sigma-Aldrich, St. Louis, Mo., USA), 10 nmol/L dexamethasone (Sigma-Aldrich), and 10 mmol/L β-glycerophosphate (Sigma-Aldrich). […] The medium was changed every 3 days. After appearance of the morphologic features of differentiation, cells were fixed with 4% paraformaldehyde. Cells treated by osteogenic culture were stained for Alizarin red S (Sigma-Aldrich) for mineralization. Quantification of Alizarin red S staining was conducted by measurement of the optical density (OD) of extracted dye at 550 nm with a plate reader (Molecular Devices, Sunnyvale, Calif., USA).
# After morphological differentiation, cells were subjected to Alizarin red S staining.
# AS patients = details: cited from earlier work
# [1] = system: NOD-SCID mice implanted with AS MSCs; assay: New bony apposition in NOD-SCID mice implanted with AS MSCs (micro-computed tomography of lumbar spine); assay type: in vivo; details: daily oral administration: levamisole 10 mg/kg, beryllium sulfate 7.5 mg/kg, pamidronate 0.3 mg/kg; micro-CT 3 weeks after implantation
# Protocol: The animal experimental protocol was approved by the Animal Care and Utilization Committee of Taipei Tzu Chi General Hospital. NOD-SCID mice (8-10 weeks) were purchased from BioLASCO (Taipei, Taiwan) and maintained in a specific pathogen-free environment. Human MSCs were treated with β-glycerophosphate in culture for 5 days, embedded in fibrin (10^6 cells in 5 μl fibrin) (Baxter, Vienna, Austria) and implanted in areas adjacent to right lamina of lumbar spine segments L4 to L5 in NOD-SCID mice. The lamina of lumbar spine was decorticated using the forceps. Mice were fed with a 0.9% phosphate diet (Dyets, Bethlehem, Pa., USA) after surgery. Micro-computed tomography (SkyScan 1076; Kontich, Belgium) over lumbar spines was undertaken 3 weeks after implantation. Bone mineral density over the femur measured by micro-computed tomography in NOD-SCID mice following implantation with AS MSCs and daily oral administration of H2O levamisole (10 mg/kg), beryllium sulfate tetrahydrate (7.5 mg/kg), or pamidronate (0.3 mg/kg) for 12 weeks. Quantitative volumes of new bony apposition were acquired by Bruker CT-Volume version 2.0 software.
SMILES,type of TNAP inhibition (TNAP),accelerated mineralization in AS MSCs (ARS staining) (AS MSCs),"inflammation of AS patients (AS patients; some studies, references 26-29)",new bony apposition induced by AS MSCs [1],"serum BAP levels (AS patients; one study, reference 34)"
"O.O.O.O.O=S(=O)([O-])[O-].[Be+2] [beryllium sulfate, BeSO4•4H2O]",competitive,blocked effectively,,,
"c1ccc([C@H]2CN3CCSC3=N2)cc1 [levamisole, (6S)-6-phenyl-2H,3H,5H,6H-imidazo[2,1-b][1,3]thiazole]",uncompetitive,blocked effectively; also recorded: inhibit this abnormal mineralization,marginally reduce inflammation,blocked,
NCCC(O)(P(=O)(O)O)P(=O)(O)O [pamidronate],uncompetitive,blocked effectively; also recorded: inhibit this abnormal mineralization,,blocked,lowering serum BAP levels
